Assay results published in the CombiSolv-Exp solvation set (Vermeire and Green 2021).
Blank lines part the entries; values can stand above or below the compound they belong to.

Assay: solvent given as SMILES
[1] = in CC(C)CCCC(C)CCCC(C)CCCCC(C)CCCC(C)CCCC(C)C
[2] = in CCCCCCCC(=O)OCC(COC(=O)CCCCCCC)OC(=O)CCCCCCC

solvation free energy, 298 K (in O): -8.45 kJ/mol
Structure (SMILES): CC(C)OC=O

solvation free energy, 298 K [1]: -14.7 kJ/mol
solvation free energy, 298 K (in CCCCCCCCCC): -15.9 kJ/mol
solvation free energy, 298 K (in CCCCCCCCCCCCCCCC): -14.9 kJ/mol
solvation free energy, 298 K (in CCCCCCCCO): -16.7 kJ/mol
solvation free energy, 298 K (in O): -10.8 kJ/mol
solvation free energy, 298 K (in [2H]O[2H]): -11 kJ/mol
Structure (SMILES): CC(=O)OC(C)C

solvation free energy, 298 K (in O): -21.8 kJ/mol
Structure (SMILES): CCCc1ccc(O)cc1

solvation free energy, 298 K (in O): 4.73 kJ/mol
Structure (SMILES): CC1CCC2(C(C)C)CC12 (stereo unspecified)

solvation free energy, 298 K (in CCCCCCCCCCO): -43 kJ/mol
Structure (SMILES): CCCCCCCCCCCO

solvation free energy, 298 K (in O): -27.2 kJ/mol
Structure (SMILES): CCCCCCCCCCOC(=O)c1ccccc1C(=O)OCCCCC

solvation free energy, 298 K (in C=CCCCCCCCCCCCCCC): -16.2 kJ/mol
solvation free energy, 298 K (in O): 7.41 kJ/mol
Structure (SMILES): C=CCCC(C)C

solvation free energy, 298 K (in O): -2.3 kJ/mol
Structure (SMILES): CC=C(C)C=CC=C(C)C

Continued, compound first:

Structure (SMILES): CN1C(=O)CN=C(c2ccccc2)c2cc(Cl)ccc21
solvation free energy, 298 K (in O): -52.6 kJ/mol

Structure (SMILES): COCc1ccc(C(=O)O)cc1
solvation free energy, 298 K (in C=CCCCCCCCCCCCCCC): -34.6 kJ/mol
solvation free energy, 298 K (in O): -41.4 kJ/mol

Structure (SMILES): COc1cccc(C=O)c1O
solvation free energy, 298 K (in O): -28.8 kJ/mol

Structure (SMILES): CN1CCCC1
solvation free energy, 298 K (in CCCCCCCCO): -20.8 kJ/mol

Structure (SMILES): CC(C)OC(=O)c1ccccc1C(=O)OC(C)C
solvation free energy, 298 K (in O): -31 kJ/mol

Structure (SMILES): FC(F)(Cl)Cl
solvation free energy, 298 K (in CCCCCCC): -7.53 kJ/mol
solvation free energy, 298 K (in CCCCCCCC): -7.36 kJ/mol
solvation free energy, 298 K [2]: -5.69 kJ/mol
solvation free energy, 298 K (in CCCCCCCCC): -7.03 kJ/mol
solvation free energy, 298 K (in CCCCCCCCO): -5.61 kJ/mol
solvation free energy, 298 K (in ClC(Cl)(Cl)Cl): -8.03 kJ/mol

Structure (SMILES): CCCCCCCCCCCCCCCCCCC
solvation free energy, 298 K (in CC(=O)N(C)C): -53.8 kJ/mol
solvation free energy, 298 K (in CCCCOC(C)=O): -53 kJ/mol
solvation free energy, 298 K (in CCO): -45.4 kJ/mol
solvation free energy, 298 K (in O): 18.3 kJ/mol

Structure (SMILES): CC1(C)CCCC2(C)C3CC4C(C31)C42C (stereo unspecified)
solvation free energy, 298 K (in O): 4.69 kJ/mol

Structure (SMILES): Cc1cccc(O)c1
solvation free energy, 298 K [1]: -24.2 kJ/mol
solvation free energy, 298 K (in CCCCCC): -24.4 kJ/mol
solvation free energy, 298 K (in CCCCCCCCCCCCCCCC): -24 kJ/mol

Structure (SMILES): CC(F)F
solvation free energy, 298 K (in CC(C)(C)O): -5.94 kJ/mol
solvation free energy, 298 K (in CC(C)CCO): -5.44 kJ/mol
solvation free energy, 298 K (in CC(C)CO): -5.65 kJ/mol
solvation free energy, 298 K (in CC(C)O): -6.28 kJ/mol
solvation free energy, 298 K (in CCC(C)(C)O): -5.69 kJ/mol
solvation free energy, 298 K (in CCC(C)CO): -5.15 kJ/mol
solvation free energy, 298 K (in CCC(C)O): -5.52 kJ/mol
solvation free energy, 298 K (in CCC(O)CC): -5.19 kJ/mol
solvation free energy, 298 K (in CCCC(C)O): -5.06 kJ/mol
solvation free energy, 298 K [2]: -5.73 kJ/mol
solvation free energy, 298 K (in CCCCCCCCC): -4.52 kJ/mol
solvation free energy, 298 K (in CCCCCCCCO): -4.48 kJ/mol
solvation free energy, 298 K (in CCCCCO): -5.36 kJ/mol
solvation free energy, 298 K (in CCCCO): -5.69 kJ/mol
solvation free energy, 298 K (in CCCO): -6.23 kJ/mol
solvation free energy, 298 K (in CN1CCCC1=O): -8.45 kJ/mol
solvation free energy, 298 K (in CN(C)C=O): -8.83 kJ/mol
solvation free energy, 298 K (in CO): -7.99 kJ/mol
solvation free energy, 298 K (in Cc1ccc(C)cc1): -6.78 kJ/mol
solvation free energy, 298 K (in Cc1cccc(C)c1): -6.82 kJ/mol
solvation free energy, 298 K (in Cc1ccccc1C): -6.78 kJ/mol
solvation free energy, 298 K (in O): -0.502 kJ/mol

Structure (SMILES): CCCCSP(=O)(O)SCCCC
solvation free energy, 298 K (in O): -33.6 kJ/mol

Structure (SMILES): O=[N+]([O-])c1cccc2ccccc12
solvation free energy, 298 K (in CC(C)(C)O): -40.6 kJ/mol
solvation free energy, 298 K (in CC(C)CC(C)(C)C): -38.4 kJ/mol
solvation free energy, 298 K (in CC(C)CCO): -40.5 kJ/mol
solvation free energy, 298 K (in CC(C)CO): -40 kJ/mol
solvation free energy, 298 K (in CC(C)O): -40.9 kJ/mol
solvation free energy, 298 K (in CC(C)OC(C)C): -43.4 kJ/mol
solvation free energy, 298 K (in CCC(C)O): -41.6 kJ/mol
solvation free energy, 298 K (in CCCC(C)O): -41.1 kJ/mol
solvation free energy, 298 K (in CCCCC(CC)CO): -40.8 kJ/mol
solvation free energy, 298 K (in CCCCCC): -39.1 kJ/mol
solvation free energy, 298 K (in CCCCCCC): -39.2 kJ/mol
solvation free energy, 298 K (in CCCCCCCC): -39.2 kJ/mol
solvation free energy, 298 K (in CCCCCCCCCC): -39.3 kJ/mol
solvation free energy, 298 K (in CCCCCCCCCCO): -41.6 kJ/mol
solvation free energy, 298 K (in CCCCCCCCO): -41.8 kJ/mol
solvation free energy, 298 K (in CCCCCCCO): -41.8 kJ/mol
solvation free energy, 298 K (in CCCCCCO): -41.8 kJ/mol
solvation free energy, 298 K (in CCCCCO): -41.8 kJ/mol
solvation free energy, 298 K (in CCCCO): -41.7 kJ/mol
solvation free energy, 298 K (in CCCCOCCCC): -42.9 kJ/mol
solvation free energy, 298 K (in CCCO): -41.8 kJ/mol
solvation free energy, 298 K (in CCO): -42.2 kJ/mol
solvation free energy, 298 K (in CCOCC): -46 kJ/mol
solvation free energy, 298 K (in COC(C)(C)C): -45.5 kJ/mol
solvation free energy, 298 K (in O): -23.6 kJ/mol

Structure (SMILES): CCOP(=S)(OCC)SCSc1ccc(Cl)cc1
solvation free energy, 298 K (in O): -27.2 kJ/mol

Structure (SMILES): C1CO1
solvation free energy, 298 K (in O): -12 kJ/mol

Structure (SMILES): Clc1ccc(Cl)c(Cl)c1
solvation free energy, 298 K (in CCCCCC): -29.2 kJ/mol
solvation free energy, 298 K (in O): -4.85 kJ/mol
